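Cells were grown in 96-well plates and exposed to each compound for 48 hours at five concentrations; endpoints were interpolated linearly between bracketing concentrations, or set to the highest concentration if not reached. At the GI50, growth is halved.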 The source made the active and inactive calls. Rule as the data show it: active = GI50 up to about 1.1 µM and inactive = higher.
Legend:
Assay in all cases: NCI-60 cell line screen, 48 h
[1] = system: OVCAR-4
[2] = system: HT-29
[3] = system: SNB-19
[4] = system: KM12
[5] = system: A498
[6] = system: CAKI-1
[7] = system: UACC-62
[8] = system: SF-539
[9] = system: SF-295
[10] = system: HCT-116
[11] = system: OVCAR-5
[12] = system: IGROV-1
[13] = system: NCI-H460
[14] = system: LOX IMVI
[15] = system: SK-MEL-5
[16] = system: NCI-H522
[17] = system: NCI-H226
[18] = system: M14

Measured: GI50

COCOCc1cc(OCc2ccccc2)c(OC)cc1Br
inactive: [1] > 100 µM | [2] > 100 µM | [3] > 100 µM | [4] > 100 µM | [5] > 100 µM | [6] 64.3 µM | [7] 71.9 µM | [8] > 100 µM | [9] > 100 µM | [10] > 100 µM | [11] > 100 µM | [12] > 100 µM | [13] > 100 µM | [14] 52.8 µM | [15] 61.1 µM

O=c1[nH]c2c(c3ccccc13)CCc1ccccc1-2
inactive: [1] > 100 µM | [2] > 100 µM | [3] > 100 µM | [4] > 100 µM | [6] > 100 µM | [7] > 10 µM | [8] > 100 µM | [9] > 100 µM | [16] > 100 µM | [10] > 100 µM | [11] > 100 µM | [12] > 100 µM | [15] > 100 µM | [17] > 100 µM

COc1ccc(-c2onc(-c3ccc([N+](=O)[O-])cc3)c2C2=NCCN2)cc1
inactive: [1] 60.1 µM | [18] > 100 µM | [2] 33.3 µM | [3] 50.5 µM | [4] > 100 µM | [6] > 100 µM | [7] > 100 µM | [8] 38 µM | [9] 35.2 µM | [16] > 10 µM | [10] 36 µM | [11] > 100 µM | [12] > 100 µM | [13] 45.9 µM | [14] 79.6 µM | [15] 83.6 µM | [17] 95.1 µM

N#CC(C#N)=c1c2nsnc2c(=C(C#N)C#N)c2nsnc12
inactive: [1] 1.96 µM | [18] 2.07 µM | [2] 1.59 µM | [3] 2.16 µM | [4] 1.85 µM | [6] 1.86 µM | [8] 1.93 µM | [9] 1.89 µM | [16] 1.96 µM | [10] 1.98 µM | [11] 1.89 µM | [13] 2.08 µM | [14] 1.58 µM | [17] 16.7 µM

Clc1ccc(-c2c3nc(c(-c4ccc(Cl)cc4)c4ccc([nH]4)c(-c4ccc(Cl)cc4)c4nc(c(-c5ccc(Cl)cc5)c5ccc2[nH]5)C=C4)C=C3)cc1
inactive: [1] > 100 µM | [18] > 100 µM | [2] > 100 µM | [3] > 100 µM | [4] > 100 µM | [6] > 100 µM | [7] > 100 µM | [8] > 100 µM | [9] > 100 µM | [16] > 100 µM | [11] > 100 µM | [12] > 100 µM | [13] > 100 µM | [14] > 100 µM | [15] > 100 µM

COc1c2c(cc3c1C(=O)Cc1ccc4c(c1CN(C)CC3)OCO4)OCO2
inactive: [1] 75.5 µM | [18] 74.3 µM | [2] 29.4 µM | [3] > 100 µM | [4] > 100 µM | [6] 79.3 µM | [7] > 100 µM | [8] > 100 µM | [9] > 100 µM | [16] > 100 µM | [10] 52.2 µM | [11] 29.3 µM | [12] 18.5 µM | [13] 67.3 µM | [14] > 100 µM | [15] 40.3 µM | [17] 59.2 µM

Cc1nc2c(n1CCC(C)C)C(=O)c1ccccc1C2=O
inactive: [1] 36.6 µM | [18] 20.1 µM | [2] 20.5 µM | [3] 39.7 µM | [4] 21.3 µM | [7] 12.2 µM | [8] 12 µM | [9] 21.3 µM | [16] 20.5 µM | [10] 6.84 µM | [12] 22.3 µM | [13] 6.08 µM | [14] 14.7 µM | [15] 14.6 µM | [17] 45.2 µM

Cc1cc2c(=O)c3ccc(Cl)cc3[nH]c2c(C(=O)O)c1C
inactive: [1] > 100 µM | [18] > 100 µM | [2] > 100 µM | [3] > 100 µM | [4] 32.4 µM | [6] > 100 µM | [7] > 100 µM | [8] > 100 µM | [9] > 100 µM | [16] 73.8 µM | [10] > 100 µM | [11] > 100 µM | [12] > 100 µM | [13] > 100 µM | [14] > 100 µM | [15] > 100 µM | [17] > 100 µM

CC(C)(C)C(=O)Nc1ccccc1Br
inactive: [1] > 100 µM | [18] > 100 µM | [2] > 100 µM | [3] > 100 µM | [4] > 100 µM | [6] > 100 µM | [7] > 100 µM | [9] > 100 µM | [10] > 100 µM | [11] > 100 µM | [12] > 100 µM | [13] > 100 µM | [14] > 100 µM | [15] > 100 µM | [17] > 100 µM

CCOC(=O)CCn1cnc(N)n1
inactive: [1] > 100 µM | [18] > 100 µM | [2] > 100 µM | [3] > 100 µM | [4] > 100 µM | [6] > 100 µM | [7] > 100 µM | [8] > 100 µM | [9] > 100 µM | [16] > 100 µM | [10] > 100 µM | [11] > 100 µM | [12] > 100 µM | [13] > 100 µM | [14] > 100 µM | [15] > 100 µM | [17] > 100 µM

CCCCN(CCCC)CCCn1cnc2ncccc2c1=O
inactive: [1] > 100 µM | [18] > 100 µM | [2] > 100 µM | [3] > 100 µM | [4] > 100 µM | [6] > 100 µM | [7] > 100 µM | [8] > 100 µM | [9] > 100 µM | [16] > 100 µM | [10] > 100 µM | [11] > 100 µM | [12] > 100 µM | [13] > 100 µM | [14] > 100 µM | [15] 72.6 µM | [17] > 100 µM

Cc1ccccc1NC(=O)C(=O)c1c(O)c2ccc(O)cc2oc1=O
inactive: [1] > 100 µM | [18] > 100 µM | [2] > 100 µM | [3] > 100 µM | [4] > 100 µM | [5] > 100 µM | [6] > 100 µM | [7] > 100 µM | [16] > 100 µM | [10] > 100 µM | [12] > 100 µM | [13] > 100 µM | [14] > 100 µM | [15] > 100 µM | [17] > 100 µM

CCCN(CCC)c1c([N+](=O)[O-])cc(C(N)=O)cc1[N+](=O)[O-]
inactive: [1] > 100 µM | [18] > 100 µM | [2] > 100 µM | [4] > 100 µM | [6] 37.2 µM | [8] > 100 µM | [9] > 100 µM | [16] 36.7 µM | [10] > 100 µM | [11] > 100 µM | [12] > 100 µM | [13] 68.2 µM | [15] 1.16 µM | [17] > 100 µM

From ChEMBL document CHEMBL1201862, “PubChem BioAssay data set” (2004)
